Key:
SUM149-RR tumor cells = assay: Orthotopic human inflammatory breast cancer model SUM149-RR, lymph node metastatic burden (luciferase); assay type: in vivo, CB-17 SCID mice; settings: for change in ILN burden versus control (in words): single agents or combination with CEL
Procedure: (§1) Luciferase-tagged SUM149 and MDA-MB-435 cell lines were used to determine the incidence and the burden of locoregional and systemic spread. Mice were monitored twice a week for 9-16 weeks for percent weight loss, tumor volume and survival outcome. Metastatic tumor burden and incidence was measured as luciferase expression in lymph nodes and lungs and normalized to total protein.
(§2) Tumors were monitored 2-3 times per week with digital calipers. Once tumors reached 1500 mm3, the mice were sacrificed. Tumors from MDA-MB-435-Luc and SUM149-RR were snap frozen and ipsilateral lymph nodes and lungs were collected for assessing metastatic burden and incidence by measuring luciferase expression per organ and normalized to total protein. Difference in incidence or burden as compared to the control was assessed by a Fisher exact test, or a Mann-Whitney test.
as §1, with “Methods: Three anti-hypertensive drugs (Lisinopril [LIS], Olmesartan medoxomil [OLM] and Hydrochlorothiazide [HCTZ]) were evaluated for tumor growth suppression and metastatic spread in xenograft models of inflammatory breast cancer/SUM149, melanoma/MDA-MB-435 and glioblastoma/U87. Luciferase-tagged” for “Luciferase-tagged”, “spread. […]” for “spread.”
Seven days post implantation, mice in subgroups of 5 received either saline, LIS (15 mg/kg), OLM (30 mg/kg) or HCTZ (10 mg/kg) for 5 days/wk for 3 weeks.
as §2, with “The tumor was” for “Tumors from MDA-MB-435-Luc and SUM149-RR were”

[1] = tested on: inflammatory breast cancer/SUM149, melanoma/MDA-MB-435 and glioblastoma/U87 xenografts; assay: Tumor growth suppression across xenograft models (pooled statements); assay type: in vivo, mice; settings: for effect on tumor growth (in words): single agents, cancer models studied (breast cancer, melanoma, glioblastoma)
Procedure: as §1
Subcutaneous melanoma xenograft tumor model: MDA-MB-435-Luc: Female SCID mice were implanted with 4×10^6 MDA-MB-435-Luciferase tumor cells in 50% Matrigel subcutaneously on the left flank.
Orthotopic human inflammatory breast cancer model: SUM149-RR: Female CB-17 SCID mice were implanted in the mammary fat pad with 4×10^6 SUM149-RR tumor cells in 50% Matrigel.
T/C (%) was calculated as the mean RTV (relative tumor volume) of treated tumors (T) divided by the mean RTV of control tumors (C)×100%.
as §2
(§3) Methods: Three anti-hypertensive drugs (Lisinopril [LIS], Olmesartan medoxomil [OLM] and Hydrochlorothiazide [HCTZ]) were evaluated for tumor growth suppression and metastatic spread in xenograft models of inflammatory breast cancer/SUM149, melanoma/MDA-MB-435 and glioblastoma/U87. Luciferase-tagged SUM149 and MDA-MB-435 cell lines were used to determine the incidence and the burden of locoregional and systemic spread. CB-17 SCID mice were implanted either subcutaneously (MDA-MB-435 and U87) or orthotopically (SUM149) with 4×10^6 cancer cells and oral administration of test agents for 3 weeks was initiated on post-tumor inoculation Day 7. Mice were monitored twice a week for 9-16 weeks for percent weight loss, tumor volume and survival outcome. Metastatic tumor burden and incidence was measured as luciferase expression in lymph nodes and lungs and normalized to total protein.
Subcutaneous human melanoma xenograft tumor model: MDA-MB-435-Luciferase: Female SCID mice were implanted with 4×10^6 MDAMB-435-Luc tumor cells in 50% Matrigel subcutaneously on the left flank. Seven days post implantation, tumor-bearing mice in subgroups received either saline, Lisinopril (LIS, 15 mg/kg), Olmesartan (OLM, 30 mg/kg); or Hydrochlorothiazide (HCTZ, 10 mg/kg) for 5 consecutive days for 3 weeks.
Female CB-17 SCID mice were implanted in the mammary fat pad with 4×10^6 SUM149-RR tumor cells in 50% Matrigel. Seven days post implantation, mice in subgroups of 5 received either saline, LIS (15 mg/kg), OLM (30 mg/kg) or HCTZ (10 mg/kg) for 5 days/wk for 3 weeks.
Subcutaneous human U87-MG glioblastoma model: 3×10^6 U87 glioblastoma cells were injected into the right flank of Balb/c nude mice and tumor-bearing (50-250 mm3) mice were randomized into 10 groups (10 mice/group) and the antitumor activities of OLM were evaluated following daily PO administration (30 or 60 mg/kg, QD×21). T/C (%) was calculated as the mean RTV (relative tumor volume) of treated tumors (T) divided by the mean RTV of control tumors (C)×100%.
as §2, with “The tumor was” for “Tumors from MDA-MB-435-Luc and SUM149-RR were”

tumor blood vessels (BV) = assay: Tumor blood vessel density and normalization (FIG. 6A/6B); assay type: in vivo; settings: control tumors had low BV density and necrosis
MDA-MB-435 xenograft = MDA-MB-435 xenograft tumor growth and tumor burden; assay type: in vivo, CB-17 SCID mice; settings: MDA-MB-435 model; LIS 15 mg/kg, 5 consecutive days for 3 weeks
Procedure: as §2
as §3, with “CB-17 SCID mice were implanted either subcutaneously (MDA-MB-435 and U87) or orthotopically (SUM149) with 4×10^6 cancer cells and oral administration of test agents for 3 weeks was initiated on post-tumor inoculation Day 7.” left out
Tumors were monitored 2-3 times per week with digital calipers. Once tumors reached 1500 mm3, the mice were sacrificed.

| SMILES | change in ILN burden versus control (in words) (SUM149-RR tumor cells) | effect on tumor growth (in words) [1] | effect on tumor growth (in words) ([1]; listed as HTCZ) | fold decrease in ILN tumor burden versus saline control (SUM149-RR tumor cells; OLM 30 mg/kg alone) [fold] | average tumor burden in the ipsilateral lymph nodes (ILN) (SUM149-RR tumor cells; OLM 30 mg/kg, saline control 17.6±8.6, p-value=0.01 by Mann-Whitney test) | lymph node burden (SUM149-RR tumor cells; OLM versus control 17.6±8.6, P=0.01) | inhibition of tumor growth ([1]; range over all three xenograft models (SUM149, MDA-MB-435, U87)) | effect on tumor growth (in words) ([1]; listed as olmesartan) | effect on tumor blood vessels (BV) (tumor blood vessels (BV); FIG. 6A, single agents) | effect on tumor blood vessels (BV) (tumor blood vessels (BV); FIG. 6B, in combination) | reduction in tumor burden (MDA-MB-435 xenograft) | effect on tumor growth (in words) ([1]; listed as Lisinopril) |
| --- | --- | --- | --- | --- | --- | --- | --- | --- | --- | --- | --- | --- |
| NS(=O)(=O)c1cc2c(cc1Cl)NCNS2(=O)=O [HCTZ, Hydrochlorothiazide] | not | no effect on tumor growth | did not show the same effect | – | – | – | – | – | – | – | – | – |
| CCCc1nc(C(C)(C)O)c(C(=O)OCc2oc(=O)oc2C)n1Cc1ccc(-c2ccccc2-c2nn[nH]n2)cc1 [OLM, (5-methyl-2-oxo-2H-1,3-dioxol-4-yl)methyl 4-(2-hydroxypropan-2-yl)-2-propyl-1-({4-[2-(2H-1,2,3,4-tetrazol-5-yl)phenyl]phenyl}methyl)-1H-imidazole-5-carboxylate] | statistically significant decrease in ILN burden | significant inhibition of tumor growth | – | 7.1 | 2.4±0.6 ×104 RLU per mg of protein | 2.4±0.6 ×10^4 RLU/mg of protein | 50-61% | showed tumor growth suppression | facilitated the normalization and stabilization of tumor BVs | facilitated the normalization and stabilization of tumor BVs | – | – |
| NCCCC[C@H](N[C@@H](CCc1ccccc1)C(=O)O)C(=O)N1CCC[C@H]1C(=O)O [LIS, Lisinopril] | – | significant inhibition of tumor growth | – | – | – | – | – | – | no major effect | no major effect | significant reduction in tumor burden | showed tumor growth suppression |

Reference: US20190201508A1, “METHODS FOR TREATING CANCERS USING ACE INHIBITORS, ARB, OR CELECOXIB AND OLMESARTAN” (Marina Biotech, Inc., priority 2016, published 2019)
